From patent US8618163B2, “Derivatives of cycloalkyl- and cycloalkenyl-1,2-dicarboxylic acid compounds having formyl peptide receptor like-1 (FPRL-1) agonist or antagonist activity” (Allergan, Inc., priority 2010, dated 2013)
Read-outs that look alike come from different tables or passages of the source.

Tests used:
[1] = biological target: T1, FPRL1 (Homo sapiens, UniProt P25090); test: compound-induced calcium activity on FLIPR Tetra in CHO-Gal6 cells stably expressing FPRL1; type: cell-based; conditions: for EC50: read-out: FPRL1 EC50; for FPRL1 (rel. eff.): relative efficacy
T1 construct: expressed in transfected cells; host or cells: CHO-Gal6 (CHO cells with G alpha 16)
T1 sequence (P25090 1-351): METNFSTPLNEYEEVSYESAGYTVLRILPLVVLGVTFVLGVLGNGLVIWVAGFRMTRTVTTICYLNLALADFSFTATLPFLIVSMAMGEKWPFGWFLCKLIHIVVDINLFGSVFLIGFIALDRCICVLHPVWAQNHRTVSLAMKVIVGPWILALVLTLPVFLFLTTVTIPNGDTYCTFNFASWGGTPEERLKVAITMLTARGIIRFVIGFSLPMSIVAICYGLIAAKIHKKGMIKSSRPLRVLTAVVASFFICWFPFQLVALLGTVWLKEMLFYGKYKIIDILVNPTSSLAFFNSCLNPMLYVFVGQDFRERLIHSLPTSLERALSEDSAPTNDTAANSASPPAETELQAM
Experimental: (§1) CHO-Gal6 cells stably expressing FPRL1 were cultured in (F12, 10% FBS, 1% PSA, 400 μg/ml geneticin and 50 μg/ml hygromycin) and HEK-Gqi5 cells stable expressing FPR1 were cultured in (DMEM high glucose, 10% FBS, 1% PSA, 400 μg/ml geneticin and 50 μg/ml hygromycin). In general, the day before the experiment, 18,000 cells/well were plated in a 384-well clear bottom poly-d-lysine coated plate. The following day the screening compound-induced calcium activity was assayed on the FLIPR^Tetra. The drug plates were prepared in 384-well microplates using the EP3 and the MultiPROBE robotic liquid handling systems. Compounds were tested at concentrations ranging from 0.61 to 10,000 nM. Results are expressed as EC50 (nM) and efficacy values.

[2] = biological target: T2, FPR1 (Homo sapiens, UniProt P21462); test: compound-induced calcium activity on FLIPR Tetra in HEK-Gqi5 cells stable expressing FPR1; type: cell-based; set-up: FPR1 (rel. eff.): scale not given here
T2 construct: expressed in transfected cells; host or cells: HEK-Gqi5 (HEK cells with chimeric G protein Gqi5)
T2 sequence (P21462 1-350): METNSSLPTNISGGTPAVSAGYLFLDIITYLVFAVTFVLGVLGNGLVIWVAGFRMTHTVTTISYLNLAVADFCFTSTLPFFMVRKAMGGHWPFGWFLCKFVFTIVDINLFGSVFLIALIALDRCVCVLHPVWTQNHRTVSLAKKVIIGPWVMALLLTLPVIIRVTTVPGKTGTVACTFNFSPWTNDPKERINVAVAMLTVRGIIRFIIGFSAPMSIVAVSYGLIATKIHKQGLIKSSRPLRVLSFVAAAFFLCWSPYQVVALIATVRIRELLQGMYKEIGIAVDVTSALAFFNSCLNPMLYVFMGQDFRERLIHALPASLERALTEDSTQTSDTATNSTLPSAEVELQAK
Experimental: as §1

[3] = calcium, FLIPR Tetra, tested 0.61 to 10,000 nM
[4] = class symbol NA, read-out: FPR1 EC50 (NA = Not Active)

EC50 [1, 3]	FPRL1 (rel. eff.) ([1]; calcium, FLIPR Tetra)	EC50 ([2]; cells printed in μM, read-out: FPR1 EC50)	FPR1 (rel. eff.) ([2]; relative efficacy, calcium, FLIPR Tetra)	EC50 [2, 4]	EC50 ([1]; in μM)	Compound
0.051 µM	0.79			> 10 µM		CCc1ccc(NC(=O)C2C(C(N)=O)C3C=CC2C32CC2)cc1 (racemic) [Compound 48, (+/−)-(1R,4S,5R,6S)—N-5-(4-Ethylphenyl)spiro[bicyclo[2.2.1]hept[2]ene-7,1′-cyclopropane]-5,6-dicarboxamide]
	0.81			> 10 µM		CC1(C)[C@@H]2CC[C@H]1[C@@H](C(=O)Nc1ccc(I)cc1)[C@H]2C(N)=O (racemic) [Compound 55, (+/−)-(1S,2R,3S,4R)—N2-(4-Iodophenyl)-7,7-dimethylbicyclo[2.2.1]heptane-2,3-dicarboxamide]
0.229 µM	0.91			> 10 µM		O=C(Nc1ccc(Br)cc1)C1C(CO)C2C=CC1C21CC1 (racemic) [Compound 58, (+/−)-(1R,4S,5R,6S)—N-(4-Bromophenyl)-6-(hydroxymethyl)spiro[bicyclo[2.2.1]-hept[2]ene-7,1′-cyclopropane]-5-carboxamide]
	0.76			> 10 µM	> 10 µM	O=C(Nc1ccc(Br)cc1)[C@H]1[C@@H](CO)[C@H]2CC[C@@H]1C21CC1 (racemic) [Compound 59, (+/−)-(1S,2R,3S,4R)—N-(4-Bromophenyl)-3-(hydroxymethyl)spiro[bicyclo[2.2.1]-heptane-7,1′-cyclopropane]-2-carboxamide]
0.0172 µM	0.9			> 10 µM		CSc1ccc(NC(=O)[C@H]2[C@@H](C(N)=O)[C@H]3CC[C@@H]2C3(C)C)cc1 (racemic) [Compound 64, (+/−)-(1S,2R,3S,4R)-7,7-Dimethyl-N^2-(4-(methylthio)phenyl)bicyclo[2.2.1]heptane-2,3-dicarboxamide]
0.0508 µM	0.79			> 10 µM		CCc1ccc(NC(=O)C2C(C(N)=O)C3C=CC2C32CC2)cc1 (racemic) [Compound 66, (+/−)-(1R,4S,5R,6S)—N^5-(4-Ethylphenyl)spiro[bicyclo[2.2.1]hept[2]ene-7,1′-cyclopropane]-5,6-dicarboxamide]
0.0077 µM	0.87			> 10 µM		NC(=O)C1C(C(=O)Nc2ccc(I)cc2)C2C=CC1C21CC1 (racemic) [Compound 69, (+/−)-(1R,4S,5R,6S)—N^5-(4-Iodophenyl)spiro[bicyclo[2.2.1]hept[2]ene-7,1′-cyclopropane]-5,6-dicarboxamide]
0.475 µM	0.95			> 10 µM		C[S+]([O-])c1ccc(NC(=O)C2C(C(=O)O)C3CCC2C32CC2)cc1 (racemic) [Compound 70, (+/−)-(1R,2S,3R,4S)-3-((4-Methylsulfinyl)phenyl)carbamoyl)spiro[bicyclo[2.2.1]-heptane-7,1′-cyclopropane]-2-carboxylic Acid]

More lines, now with the values behind:

Compound	EC50 [1, 3]	FPRL1 (rel. eff.) ([1]; calcium, FLIPR Tetra)	EC50 ([2]; cells printed in μM, read-out: FPR1 EC50)	FPR1 (rel. eff.) ([2]; relative efficacy, calcium, FLIPR Tetra)	EC50 [2, 4]	EC50 ([1]; in μM)
NC(=O)C1C(C(=O)Nc2ccc(Br)cc2)C2CCC1C21CC1 (racemic) [Compound 46B]	< 0.001 µM	0.91	> 40 µM	0.30		
CSc1ccc(NC(=O)C2C(C(N)=O)C3C=CC2C32CC2)cc1 (racemic) [Compound 49, (+/−)-(1R,4S,5R,6S)—N-5-(4-(Methylthio)phenyl)spiro[bicyclo[2.2.1]hept[2]ene-7,1′-cyclopropane]-5,6-dicarboxamide]	0.097 µM	0.90			> 10 µM	
NC(=O)C1C(C(=O)Nc2ccc(I)cc2)C2C=CC1C21CC1 (racemic) [Compound 50, (+/−)-(1R,4S,5R,6S)—N-5-(4-Iodophenyl)spiro[bicyclo[2.2.1]hept[2]ene-7,1′-cyclopropane]-5,6-dicarboxamide]	0.0018 µM	0.85			> 10 µM	
NC(=O)[C@@H]1[C@H](C(=O)Nc2ccc(I)cc2)[C@@H]2CC[C@H]1C21CC1 (racemic) [Compound 51, (+/−)-(1S,2R,3S,4R)—N2-(4-Iodophenyl)spiro[bicyclo[2.2.1]heptane-7,1′-cyclopropane]-2,3-dicarboxamide]	< 0.0048 µM	0.87			> 10 µM	
CCc1ccc(NC(=O)[C@H]2[C@@H](C(N)=O)[C@H]3CC[C@@H]2C32CC2)cc1 (racemic) [Compound 52, (+/−)-(1S,2R,3S,4R)—N^2-(4-Ethylphenyl)spiro[bicyclo[2.2.1]heptane-7,1′-cyclopropane]-2,3-dicarboxamide]	0.033 µM	0.97			> 10 µM	
CSc1ccc(NC(=O)[C@H]2[C@@H](C(N)=O)[C@H]3CC[C@@H]2C32CC2)cc1 (racemic) [Compound 53, (+/−)-(1S,2R,3S,4R)—N2-(4-(Methylthio)phenyl)spiro[bicyclo[2.2.1]heptane-7,1′-cyclopropane]-2,3-dicarboxamide]	0.015 µM	0.86			> 10 µM	
CSc1ccc(NC(=O)[C@H]2[C@@H](C(N)=O)[C@H]3CC[C@@H]2C3(C)C)cc1 (racemic) [Compound 56, (+/−)-(1S,2R,3S,4R)-7,7-Dimethyl-N2-(4-(methylthio)phenyl)bicyclo[2.2.1]heptane-2,3-dicarboxamide]		ND (0.96)			> 10 µM	
CCc1ccc(NC(=O)[C@H]2[C@@H](C(N)=O)[C@H]3CC[C@@H]2C3(C)C)cc1 (racemic) [Compound 57, (+/−)-(1S,2R,3S,4R)—N2-(4-Ethylphenyl)-7,7-dimethylbicyclo[2.2.1]heptane-2,3-dicarboxamide]	0.035 µM	0.95			> 10 µM	
CC1(C)C2CCC1C(C(=O)Nc1ccc(I)cc1)C2C(N)=O (racemic) [Compound 61, (+/−)-(1S,2R,3S,4R)—N^2-(4-Iodophenyl)-7,7-dimethylbicyclo[2.2.1]heptanes-2,3-dicarboxamide]		0.82			> 10 µM	
NC(=O)[C@@H]1[C@H](C(=O)Nc2ccc(I)cc2)[C@@H]2CC[C@H]1C21CC1 (racemic) [Compound 62, (+/−)-(1S,2R,3S,4R)—N^2-(4-Iodophenyl)-[bicyclo[2.2.1]heptane-7,1′-cyclopropane]-2,3-dicarboxamide]	0.005 µM	0.89			> 10 µM	
CSc1ccc(NC(=O)C2C(C(N)=O)C3C=CC2C32CC2)cc1 (racemic) [Compound 63, (+/−)-(1R,4S,5R,6S)—N^5-(4-(Methylthio)phenyl)spiro[bicyclo[2.2.1]hept[2]ene-7,1′-cyclopropane]-5,6-dicarboxamide]	0.0966 µM	0.9			> 10 µM	
CCc1ccc(NC(=O)[C@H]2[C@@H](C(N)=O)[C@H]3CC[C@@H]2C3(C)C)cc1 (racemic) [Compound 65, (+/−)-(1S,2R,3S,4R)—N^2-(4-Ethylphenyl)-7,7-dimethyl-bicyclo[2.2.1]heptane-2,3-dicarboxamide]	0.035 µM	0.95			> 10 µM	
CSc1ccc(NC(=O)[C@H]2[C@@H](C(N)=O)[C@H]3CC[C@@H]2C32CC2)cc1 (racemic) [Compound 67, (+/−)-(1S,2R,3S,4R)—N^2-(4-(Methylthio)phenyl)-spiro[bicyclo[2.2.1]heptane-7,1′-cyclopropane]-2,3-dicarboxamide]	0.0157 µM	0.91			> 10 µM	
CCc1ccc(NC(=O)[C@H]2[C@@H](C(N)=O)[C@H]3CC[C@@H]2C32CC2)cc1 (racemic) [Compound 68, (+/−)-(1S,2R,3S,4R)—N^2-(4-Ethyl-phenyl)-spiro[bicyclo[2.2.1]heptane-7,1′-cyclopropane]-2,3-dicarboxamide]	0.0381 µM	1.0			> 10 µM	
O=C(O)C1=C(C(=O)Nc2ccc(Br)cc2)C2C=CC1C21CC1 (racemic) [Compound 72, (+/−)-(1R,4S)-2-((4-Bromophenyl)carbamoyl)spiro[bicyclo[2.2.1]-hepta[2,5]diene-7,1′-cyclopropane]-3-carboxylic Acid]	0.617 µM	0.92			> 10 µM	
